US10752598B2, “Aryldiazepine derivatives as RSV inhibitors” (Enanta Pharmaceuticals, Inc., priority 2017, dated 2020)

Tested on: Human RSV-A (“Long” strain)
Assay: RSV-A in vitro cytoprotection (CPE) assay in HEp-2 cells, ATPlite readout
Format: cell-based
Conditions: human respiratory syncytial virus, 96 h, 4-day incubation, ATPlite cell viability
Excerpt: RSV is a single stranded negative sense RNA virus that causes respiratory tract infections which can be dangerous to infants, the elderly, and immunosuppressed individuals. Currently there is no vaccine, and therapeutic options are both costly and of limited effectiveness. These approved treatments are Ribavirin, and Palivizumab/Synagis (a monoclonal antibody). RSV has two genotypes, A and B, which differ primarily in the structure of the virus' surface “G” attachment protein. Our current primary screen focusses on RSV-A and uses an in vitro cytoprotection assay where compounds are added in 2-fold dilutions to cells which are then subjected to fully replicative viral particles. Cell viability is measured several days later along with separate measurements of compound cytotoxicity. This report focuses on the results of our most recent screening of compounds.
HEp-2 cells, (originally derived from tumors grown in irradiated-cortisonised weanling rats that had been injected with epidermoid carcinoma tissue from a person's larynx, but later found to be indistinguishable from HeLa cells by PCR DNA analysis), were used for the culturing of genotype A, “Long” strain RSV. Flasks were inoculated with RSV and viral stocks were collected once cytopathic effect (CPE) was greater than 90%. Viral stocks in 25% sucrose media were snap frozen using liquid nitrogen to increase viral stability. Viral stock titers were quantified by tissue culture infectious dose 50% (TCID50) using 8,000 cells per well and 3-fold viral dilutions across a 96-well plate, cultured for 4 days.
Following extensive parameter testing, the final assay is run as follows: HEp-2 cells are seeded into the inner 60 wells of a 96-well plate at 8,000 cells per well in a volume of […] Growth Media (DMEM without phenol red, 1% L-Glut, 1% Penn/Strep, 1% nonessential amino acids, 10% FBS). 2-fold serial dilutions of control and test compounds are added to the wells in duplicate in a total volume of 25 μL. Viral stock is then added to the wells in a volume of 25 μL, bringing the total volume of each well to 100 μL. Each 96-well plate has a control column of 6 wells with cells and virus but no compound (negative control, max CPE), a column with cells but no compound or virus (positive control, minimum CPE), and a column with no cells or virus or compound (background plate/reagent control). The control wells with cells but no virus are given an additional 25 uL of growth media containing an equal quantity of sucrose as those wells receiving the viral stock in order to keep consistent in media and volume conditions. The outer wells of the plate are filled with 125 μL of growth media to act as a thermal and evaporative moat around the test wells. Following a 4-day incubation period, the plates are read using ATPlite (50 uL added per well), which quantifies the amount of ATP (a measure of cell health) present in each well. Assay plates are read using the Envision luminometer. […] EC50 ranges are as follows: A<2 μM; B 2-5 μM; C>5 μM.

Question: With `O=C1Nc2ccccc2N(c2cc(F)c(F)c(F)c2)C[C@@H]1Nc1nnc(-c2ncc(C(F)(F)F)cc2N2CCOCC2)o1` [Example 17] as the molecule, how does the EC50 read?
Answer: > 5 µM

Question: For `O=C(Nc1ccccc1)N[C@H]1CN(c2ccccc2)c2ccccc2NC1=O` [Example 3], which EC50 is on record?
Answer: > 5 µM

Question: How did the EC50 turn out when `O=C(Nc1ccccc1)NC1C(=O)Nc2ccccc2N(c2ccccc2)C1=O` (centres unmarked) [Example 20] was run?
Answer: > 5 µM

Question: `Cc1ccc(-c2nnc(N[C@H]3CN(c4ccccc4)c4ccccc4NC3=O)o2)o1` [Example 9] was tested. Which EC50 did it give?
Answer: > 5 µM

Question: With `O=C1Nc2ccccc2N(c2ccccc2)C[C@@H]1Nc1nnc(-c2cn(-c3ccccn3)nc2N2CCOCC2)o1` [Example 13] as the molecule, how does the EC50 read?
Answer: 2 to 5 µM

Question: Which EC50 does the source give for `O=C(N[C@H]1CN(c2ccccc2)c2ccccc2NC1=O)c1ccccc1` [Example 4, (S)—N-(4-oxo-1-phenyl-2,3,4,5-tetrahydro-1H-benzo[b][1,4]diazepin-3-yl)benzamide] here?
Answer: > 5 µM

Question: How did the EC50 turn out when `O=C1Nc2ccccc2N(c2ccccc2)C[C@@H]1Nc1nnc(-c2cn(C3CCCC3)nc2N2CCOCC2)o1` [Example 10] was run?
Answer: < 2 µM

Question: With `O=C1Nc2ccccc2N(c2ccccc2)C[C@@H]1Nc1nnc(-c2ncc(C3CC3)cc2N2CCOCC2)o1` [Example 7] as the molecule, how does the EC50 read?
Answer: < 2 µM

Question: For `O=C1Nc2ccccc2N(c2ccccc2)C[C@@H]1Nc1nnc(-c2ccccc2)o1` [Example 1, (S)-5-phenyl-3-((5-phenyl-1,3,4-oxadiazol-2-yl)amino)-1,3,4,5-tetrahydro-2H-benzo[b][1,4]diazepin-2-one], which EC50 is on record?
Answer: > 5 µM

Question: With `O=C1Nc2ccccc2N(c2ccccc2)C[C@@H]1Nc1nnc(-c2nc(C(F)(F)F)sc2N2CCOCC2)o1` [Example 14, (S)-3-((5-(5-morpholino-2-(trifluoromethyl)thiazol-4-yl)-1,3,4-oxadiazol-2-yl)amino)-5-phenyl-1,3,4,5-tetrahydro-2H-benzo[b][1,4]diazepin-2-one] as the molecule, how does the EC50 read?
Answer: < 2 µM

Question: With `O=C1Nc2ccccc2N(c2ccccc2)C[C@@H]1Nc1nc2ccccc2o1` [Example 2, (S)-3-(benzo[d]oxazol-2-ylamino)-5-phenyl-1,3,4,5-tetrahydro-2H-benzo[b][1,4]diazepin-2-one] as the molecule, how does the EC50 read?
Answer: > 5 µM

Question: With `O=C(NC1C(=O)Nc2ccccc2N(c2ccccc2)C1=O)c1ccccc1` (centres unmarked) [Example 21] as the molecule, how does the EC50 read?
Answer: > 5 µM

Question: Which EC50 does the source give for `O=C1Nc2ccccc2N(c2ccccc2)C[C@@H]1Nc1nnc(-c2ccc(N3CCOCC3)cc2F)o1` [Example 12] here?
Answer: > 5 µM

Question: For `O=C1Nc2ccccc2N(c2ccccc2)C[C@@H]1Nc1nnc(-c2cccnc2N2CCOCC2)o1` [Example 6], which EC50 is on record?
Answer: 2 to 5 µM

Question: `O=C1Nc2ccccc2N(c2ccccc2)C[C@@H]1Nc1nnc(-c2ccc(F)cc2)o1` [Example 11] was tested. Which EC50 did it give?
Answer: > 5 µM

Question: `O=C1Nc2ccccc2N(c2ccccc2)C[C@@H]1Nc1nnc(-c2ncc(C(F)(F)F)cc2N2CCOCC2)o1` [Example 5, (S)-3-((5-(3-morpholino-5-(trifluoromethyl)pyridin-2-yl)-1,3,4-oxadiazol-2-yl)amino)-5-phenyl-1,3,4,5-tetrahydro-2H-benzo[b][1,4]diazepin-2-one] was tested. Which EC50 did it give?
Answer: < 2 µM

Question: How did the EC50 turn out when `O=C1Nc2ccccc2N(c2ccccc2)C[C@@H]1Nc1nnc(-c2nc(-c3cccnc3)sc2N2CCOCC2)o1` [Example 16] was run?
Answer: < 2 µM

Question: With `O=C1Nc2ccccc2N(c2ccccc2)C(=O)C1Nc1nnc(-c2ccccc2)o1` (centres unmarked) [Example 19] as the molecule, how does the EC50 read?
Answer: > 5 µM

Question: How did the EC50 turn out when `COCCNc1cc(C(F)(F)F)cnc1-c1nnc(N[C@H]2CN(c3ccccc3)c3ccccc3NC2=O)o1` [Example 8] was run?
Answer: > 5 µM

Question: `O=C1Nc2ccccc2N(c2ccccc2)C[C@@H]1Nc1nnc(-c2nc(C3CC3)sc2N2CCOCC2)o1` [Example 15] was tested. Which EC50 did it give?
Answer: < 2 µM
